Source: article PMC11239005, “Preclinical studies of RA475, a guanidine-substituted spirocyclic candidate RPN13/ADRM1 inhibitor for treatment of ovarian cancer” (PLOS ONE, 2024)

Tested on: 4UbFL in HCC1806 cells
Test: 4UbFL reporter assay, HCC1806
Type: cell-based
Settings: HCC1806 stably expressing 4UbFL, 4 h
Protocol: Sub-confluent cultures of cells were transfected with 4UbFL plasmid using TransIT 2020 reagent (Mirus Bio). Cells were seeded at 10,000 cells/well in 96-well plates 48 h post transfection, and incubated with compounds or vehicle (DMSO) at the doses and for the times indicated. Luciferase activity in cell lysate was determined with a luciferase assay kit (Promega) according to the manufacturer’s instructions. Bioluminescence was measured using a Glomax Multidetection system (Promega).
Fig 3 Impact of RA475 on proteasome function. […] Actin was used as loading control. […] After a 4 h incubation, the cells were lysed and the luciferase activity in each cell lysate was determined with a luciferase assay kit (Promega) according to the manufacturer’s instructions. Bioluminescence was measured by using a luminometer (Glomax Multidetection system, Promega) E) A patch was shaved of hair on one leg of CD-1 mice, and 10 μg 4UbFL plasmid in 20 μL of PBS was injected into the quadriceps femoralis muscle followed immediately by injection of the 2 Needle Array to 5 mm depth encompassing the injection site and square wave electroporation (ElectroSquarePorator 833, BTX-2 Needle array 5mm gap, Harvard apparatus) delivered as eight pulses at 106V for 20 ms with 200 ms intervals. […] Equally sized areas were analyzed using Living Image 2.20 software. […]

In the case of `Cl.Cl.N#Cc1ccc(/C=C2/C(=O)/C(=C/c3ccc(C#N)cc3)C23CCN(C(=N)N)CC3)cc1` [RA475, 1,3-bis((E)-4-cyanobenzylidene)-2-oxo-7-azaspiro[3.5]nonane-7-carboximidamide dihydrochloride], the 4UbFL bioluminescence signal is reported as “dose dependent increases in bioluminescence signal”.
